Key:
SKOV3 = experiment: In vitro T cell killing assay by flow cytometry; assay type: cell-based; settings: with activated T cells
Protocol: FIG. 30. Depicts results of an in vitro T cell killing assay monitored and quantified by flow cytometry.
In vitro cytotoxicity assays were performed to analyze the effect of the NMDS-LYX30 bi-functional immunoconjugate on T cell targeting of an α3β1 integrin expressing target cell. Target cells (SKOV3) were labeled with GFP. The labeled target cells were plated in 6-well plates at 30000 cells per well and allowed to adhere overnight at 37° C. in a humidified atmosphere of 5% CO2. PBMCs were isolated from healthy volunteer donor and activated with anti-CD3, anti-CD28 (1 ug/ml) for 72 hours prior to co-incubation with target cells. The activated PBMCs were co-cultured with target cells at E:T=10:1 ratio for 12 hours at 37° C. in a humidified atmosphere of 5% CO2 with or without 100 ng/ml immunoconjugates contained medium. At the end of the incubation, the cells were lifted by trypsin and collected from the plate. The cells were resuspended in equal volume of PBS containing 2% FBS, 1 mmol/L EDTA, Propidium iodine (PI) and Annexin V-APC for 15 minutes. The fluorescent intensity of GFP, PI and APC were recorded by a FACs machine. 10000 events of target cells were recorded by gating GFP positive channel. The percentage of live/dead cells was calculated by the different cell population containing different amount of annexin V or PI. […] The results are depicted in FIG. 30.

trastuzumab = experiment: Confirmation screen on TentaGel beads, crosslinked trastuzumab detected with anti-human IgG Cy3; settings: DNFB reacted with methylamine or methylpypridine prior to staining
Description: Approximately 100,000 library beads were immobilized onto 30 mm polystyrene dishes by using a series of 90% DMF washes. Beads were then washed and swelled in PBS. Nonspecific binding was inhibited with blocking buffer (0.1% BSA, 0.1% Tween, and 0.05% sodium azide) for one hour in room temperature. […] Excess antibody was removed, and beads were gently washed with PBS. To facilitate crosslinking of DNDFB to the antibody of the peptide library, we raised the pH to 8.5 for one hour. After crosslinking, beads were washed sequentially with PBS, 1.00 mM pH 3 glycine, and then pH 8 TBS. Anti-human IgG-alkaline phosphatase conjugate was then added at 1:1000 dilution. After washing, beads were then developed using BCIP (5-bromo-4-chloro-3′-indolyphosphate p-toluidine salt) solution. (NBT (nitro-blue tetrazolium chloride) was not used due to high background staining with TentaGel library beads.) Using a dissecting microscope, plates were imaged and positive beads were isolated. The isolated beads were then treated with 8M guanidine/HCl to remove all non-covalently linked proteins. The beads were further washed with PBS and water. […]
In the confirmation studies, hits were synthesized on TentaGel. Staining steps were the same except 1:30 anti-human IgG conjugated to Cy3 was used to allow for fluorescence quantification. […] Bead intensity was measured and quantified using Image J. […]

Substance | target cell killing (SKOV3) | decrease in fluorescent intensity (trastuzumab) [%]
nivolumab: anti-PD-1 checkpoint inhibitor antibody | increased target cell killing | 
indole-butyrate-Lys(DNFB)-Asp-Ser linker [DS affinity element] |  | 50

— patent US10588982B2, “Site-specific covalent chemical ligation to monoclonal and polyclonal immunoglobulin” (The Regents of the University of California, priority 2015, dated 2020)
